From patent publication US20260001876A1, “Compounds and Their Use as PDE4 Activators” (Mironid Limited, priority 2022, published 2026) come the findings set out here.

Assay [1] deals with T1, full-length human PDE4D5 (long isoform) (Homo sapiens, UniProt Q08499).
T1 construct: cell lines that stably expressed the full-length human PDE4 long isoforms and the full length human PDE4B2 short isoform; made in house; cytosol fraction of the cell lysate, not purified
In words: PDE assay ([3H]cAMP hydrolysis) with PDE4D5 cell lysate cytosol fraction. It counts as biochemical. The note with it: 100 μM test compound; mean % increase in counts over basal activity. On the procedure: (§1) HEK 293 and MDCK cells (Public Health England, Cell Culture Collections) were maintained in Dulbecco's Modified Eagle's Medium (DMEM) supplemented with 10% (v/v) fetal bovine serum (FBS) (Seralab), 2 mM L-glutamine and 100 U/mL penicillin streptomycin cocktail (ThermoFisher); termed complete media. Clonal HEK 293 cell lines were maintained in complete media supplemented with 0.6 mg/ml G418 (Enzo Life Sciences). Mouse inner medullary collecting duct (m-IMCD3) cells [American Type Culture Collection (ATCC)] were maintained in media consisting of DMEM/Hams F-12 50/50 Mix (DMEM F12; Corning) supplemented with penicillin streptomycin cocktail (100 U/mL) and FBS (10% v/v) (DMEM F12-10% FBS).
(§2) Experiment 1: Measurement of Modulation of Enzyme Activity by PDE4 Long Form Activators of the Present Invention Using Full-Length Human PDE4 Isoforms; Long Forms PDE4D5, PDE4C3, PDE4B1 and Short Form PDE4B2
(§3) (Marchmont, R. J. and Houslay, M. D. Biochem. J. 187:381-92, 1980)
(§4) Exogenous expression of long form PDE4 enzymes and stable cell line generation For transient transfection of exogenous PDE4 long isoforms, HEK 293 cells were transfected with pcDNA3.1 or pDEST™ PDE4 expression vectors using Lipofectamine LTX/Plus reagent (Invitrogen) as outlined by the manufacturer.
(§5) Where stable cell lines were generated the clonal isolates were expanded to obtain cell lines that stably expressed the full-length human PDE4 long isoforms and the full length human PDE4B2 short isoform. These were called the HEK-PDE4D5, HEK-PDE4B1 and HEK-PDE4B2 cell lines, respectively.
(§6) Lysate Preparation (Using PDE4D5 as a Typical Example)
(§7) HEK-PDE4D5 cells were seeded out in 100 mm plates and incubated at 37° C. in an atmosphere of 5% CO2, 95% air. Cell lysates were prepared using KHEM buffer [50 mM KCl, 10 mM EGTA, 50 mM HEPES (pH 7.2), 1.92 mM MgCl2].
(§8) To prepare the cell lysates, the 100 mm plates containing the cells were placed on ice and washed with ice-cold PBS (phosphate buffered saline, pH 7.4). KHEM buffer (500 μL) was added to the cells. Cells were then scraped off the plate and triturated using a needle (BD Microlance™ 0.8, 40 mm). The lysed cells were then centrifuged at 2000 rpm for 10 minutes to remove cell debris and the supernatant (cell lysate containing recombinant PDE4D5) was transferred to a fresh tube and kept on ice.
(§9) Cytosol Fraction Preparation (Using PDE4D5 as a Typical Example)
(§10) The cell lysate containing recombinant PDE4D5 was transferred into a centrifuge tube and placed into an ultracentrifuge (BECKMAN COULTER) and spun at high speed (100,000g) for 30 minutes at 4° C. The cytosol fraction was then collected and its protein amount determined using a BCA protein assay.
(§11) PDE Assay—(Using PDE4D5 as a Typical Example)
(§12) PDE assays were performed in thin-walled V-bottomed 96-well plates. […]

In assay [2] the target is T2, full-length human PDE4B2 (short isoform) (Homo sapiens, UniProt Q07343).
T2 construct: the full length human PDE4B2 short isoform; made in house; cytosol fraction of the cell lysate, not purified
T2 sequence (Q07343 1-564 isoform Q07343-2): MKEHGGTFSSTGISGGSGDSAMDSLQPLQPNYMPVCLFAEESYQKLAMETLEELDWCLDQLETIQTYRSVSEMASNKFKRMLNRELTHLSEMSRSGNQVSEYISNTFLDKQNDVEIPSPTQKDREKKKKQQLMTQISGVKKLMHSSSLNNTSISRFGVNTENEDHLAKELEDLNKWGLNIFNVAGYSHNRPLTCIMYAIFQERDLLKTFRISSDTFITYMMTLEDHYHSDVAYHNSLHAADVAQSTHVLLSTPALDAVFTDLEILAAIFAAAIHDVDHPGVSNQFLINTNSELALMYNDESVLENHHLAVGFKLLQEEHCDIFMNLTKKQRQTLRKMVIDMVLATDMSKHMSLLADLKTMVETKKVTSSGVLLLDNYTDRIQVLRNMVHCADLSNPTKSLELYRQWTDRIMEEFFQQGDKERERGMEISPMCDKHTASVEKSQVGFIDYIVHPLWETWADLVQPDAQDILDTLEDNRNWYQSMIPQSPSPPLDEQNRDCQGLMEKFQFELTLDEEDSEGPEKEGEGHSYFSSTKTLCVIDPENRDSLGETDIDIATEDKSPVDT
Description: PDE assay ([3H]cAMP hydrolysis) with PDE4B2 cell lysate cytosol fraction. It counts as biochemical. The note with it: 100 μM test compound; mean % increase in counts over basal activity. Here is the method: as §1, §2, §3, §4, §5, §6, §7, §8, §9, §10, §11, §12

Assay [3] concerns m-IMCD3 cells expressing PDE4 long forms. In words: cAMP levels in assay media of PGE2-stimulated m-IMCD3 3D cell culture. It counts as cell-based. The following applies: Mus musculus, mIMCD3; 3 μM test compound; compared to 100% for (DMSO + PGE2); read-out: cAMP level (% of PGE2-stimulated). On the procedure:
as §1
Experiment 2: Reduction of CAMP Levels in m-IMCD3 Cell Culture Treated with PDE4 Long Form Activators
Activation of intracellular PDE4 long forms leads to a reduction of both intracellular CAMP and externalised cAMP (Omar et al., PNAS 116:13320-13329, 2019). This reduction may be measured in the cell culture media supernatant of 3D cystic cell cultures, such as in the m-IMCD3 cell cyst suppression assay described in Experiment 3.
Following the completion of the m-IMCD3 cell cyst suppression assay (Experiment 3), the CAMP levels in the assay media from individual or pooled assay wells was measured using a CAMP ELISA kit (Enzo Life Sciences) or a LANCE Ultra CAMP kit (PerkinElmer) according to the manufacturer's instructions.
Treatment with PDE4 long form activators reduced CAMP levels in PGE2-stimulated m-IMCD3 cell culture.
On the technique in general: Changes in cAMP serve as a functional read-out for many G protein-coupled receptors.

Another assay has as its system m-IMCD3 cells. In words: Inhibition of PGE2-stimulated in vitro cyst formation in m-IMCD3 cells (3D culture). The note with it: Mus musculus, mIMCD3, 144 h, mean cyst area, 100% for (DMSO + PGE2) and 0% for DMSO control, 6 days of culture; for activity at 3 µM: read-out: % Cyst area* after incubation with 3 μM test compound. It counts as cell-based. The method in brief:
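m-IMCD3 cells in a 3D collagen I/Matrigel matrix at 37 °C, 5% CO2 were dosed 18–24 h after plating with compound (0.1% DMSO) plus 100 nM PGE2, in quadruplicate, replenished after 2–3 days. On day 6, z-stack imaging measured mean cyst area, normalised to DMSO+PGE2 (100%) and DMSO alone (0%).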

T1 sequence (Q08499 1-745 isoform Q08499-6): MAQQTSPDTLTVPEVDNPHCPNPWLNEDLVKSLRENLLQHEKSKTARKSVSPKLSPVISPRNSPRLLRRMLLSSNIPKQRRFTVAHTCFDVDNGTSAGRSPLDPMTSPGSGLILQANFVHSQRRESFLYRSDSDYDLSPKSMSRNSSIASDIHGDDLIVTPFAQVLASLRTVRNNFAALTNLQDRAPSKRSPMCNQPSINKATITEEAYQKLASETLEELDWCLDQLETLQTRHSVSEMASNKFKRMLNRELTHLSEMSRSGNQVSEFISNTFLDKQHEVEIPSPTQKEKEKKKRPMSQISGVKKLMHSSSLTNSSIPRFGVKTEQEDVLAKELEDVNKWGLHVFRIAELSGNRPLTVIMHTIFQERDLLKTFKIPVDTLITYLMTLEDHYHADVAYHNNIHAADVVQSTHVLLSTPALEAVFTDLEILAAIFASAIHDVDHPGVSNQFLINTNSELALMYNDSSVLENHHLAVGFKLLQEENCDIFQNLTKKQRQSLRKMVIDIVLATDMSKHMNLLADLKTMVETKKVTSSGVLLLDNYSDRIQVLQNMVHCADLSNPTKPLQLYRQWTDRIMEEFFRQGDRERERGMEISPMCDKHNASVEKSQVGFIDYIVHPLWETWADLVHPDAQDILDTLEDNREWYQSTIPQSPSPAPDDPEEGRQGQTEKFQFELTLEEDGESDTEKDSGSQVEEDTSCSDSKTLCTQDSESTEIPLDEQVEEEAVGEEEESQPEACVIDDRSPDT

Regarding `O=C(COc1ccc(F)cc1)N1CCc2nc(N3C4CCC3CNC4)ccc2C1` [Example 46, 1-(2-(3,8-diazabicyclo[3.2.1]octan-8-yl)-7,8-dihydro-1,6-naphthyridin-6(5H)-yl)-2-(4-fluorophenoxy)ethan-1-one], in assay [1], the “% increase in PDE4D5 (long isoform) activity at 100 μM* (%)” value (shortened to “% increase in PDE4D5”) is 94%. In addition, the “% increase in PDE4B2 (short isoform) activity at 100 μM*” value (“% increase in PDE4B2” below) in assay [2] is on record as 6%. Also, the activity at 3 µM in assay [3] was 42%.

Consider `O=C(Cc1ccc(F)cc1)N1CCc2nc(N3C4CCC3CNC4)ccc2C1` [Example 48, 1-(2-(3,8-diazabicyclo[3.2.1]octan-8-yl)-7,8-dihydro-1,6-naphthyridin-6(5H)-yl)-2-(4-fluorophenyl)ethan-1-one], for which the “% increase in PDE4D5” value in assay [1] turned out to be 31%. Further, the “% increase in PDE4B2” value in assay [2] is −9%. Also, the activity at 3 µM in assay [3] is 57%. In the assay with m-IMCD3 cells (10 μM, read-out: % Cyst area* after incubation with 10 μM test compound), the activity at 10 µM was -5%.

For `O=C(Cc1ccc(F)cc1)N1CCc2nc(N3C4CCC3CNC4)ncc2C1` [Example 139, 1-(2-(3,8-diazabicyclo[3.2.1]octan-8-yl)-7,8-dihydropyrido[4,3-d]pyrimidin-6(5H)-yl)-2-(4-fluorophenyl)ethan-1-one], the “% increase in PDE4D5” value in assay [1] was 28%. Also, in assay [2], the “% increase in PDE4B2” value was −1%. The activity at 3 µM in the assay with m-IMCD3 cells is 1%.

As for `CCN1CC2CCC(C1)N2c1ccc2c(n1)CCN(S(=O)(=O)Cc1ccc(F)cc1)C2` [Example 159, 2-(3-ethyl-3,8-diazabicyclo[3.2.1]octan-8-yl)-6-((4-fluorobenzyl)sulfonyl)-5,6,7,8-tetrahydro-1,6-naphthyridine], the “% increase in PDE4D5” value in assay [1] is listed as 35%. For the same molecule, the “% increase in PDE4B2” value in assay [2] worked out at 2%. For the same molecule, the activity at 3 µM in the assay with m-IMCD3 cells was 1%.
